Here are results for two molecules from PMC5537602, “TRPA1 channel mediates organophosphate-induced delayed neuropathy” (Cell Discovery, 2017).

Data set [1] concerns hTRPA1 carrying single mutations (C414A, C421A, C621A, C641A, C665A or K710R). In words: Whole-cell patch-clamp of mutant hTRPA1 channels. It counts as cell-based, human. The following applies: 30 μM flufenamic acid. Here is the method:
(§1) Human embryonic kidney 293 (HEK293) cells were cultured in DMEM containing 10% (vol/vol) heat-inactivated fetal bovine serum, 100 units ml^−1 penicillin–streptomycin and 2 mM L-glutamine at 37 °C in a humidity-controlled sterile incubator with 5% CO2. All cell culture reagents were purchased from Life Technologies. HEK293 cells were transfected transiently with the corresponding plasmids using lipofectamine 2000 (Life Technologies). Transfection efficiency was monitored by co-transfecting EGFP plasmid which codes for the enhanced green fluorescent protein. Electrophysiological recordings were performed between 24 and 36 h after transfection.
Whole-cell patch-clamp recordings in DRG neurons (small diameter, […]) and HEK293 cells were operated at room temperature (23–25 °C) using EPC-10 amplifier and Patch Master Software (HEKA). […] Currents were sampled at 10 kHz and low-pass filtered at 2.9 kHz. The internal solution was as follows (in mM): 140 CsCl, 10 HEPES, 5 EGTA, 0.1 CaCl2 and 1 MgCl2, with pH adjusted to 7.2 by CsOH and osmolarity 295–300 mOsm. […] TRPA1 currents development was monitored with repetitive injections of 300 ms duration voltage ramps from −100 to +100 mV every 2 s and the holding potential was set to 0 mV for 50 ms, existing in both sides of the voltage ramp. […]
(In general: In patch-clamp work, channel activity is measured electrically.)

The next data set addresses mTRPA1 (Mus musculus, UniProt Q8BLA8). In words: Whole-cell patch-clamp, HEK293 cells expressing mTRPA1. Type of data set: cell-based. Set-up: expressed in transfected cells; host or cells: HEK293. To be noted: 30 μM, calcium-free external solution. Here is the method: as §1
(§2) Whole-cell patch-clamp recordings in DRG neurons (small diameter, […]) and HEK293 cells were operated at room temperature (23–25 °C) using EPC-10 amplifier and Patch Master Software (HEKA). […] Currents were sampled at 10 kHz and low-pass filtered at 2.9 kHz. The internal solution was as follows (in mM): 140 CsCl, 10 HEPES, 5 EGTA, 0.1 CaCl2 and 1 MgCl2, with pH adjusted to 7.2 by CsOH and osmolarity 295–300 mOsm. The calcium-free external solution contained (in mM) 140 NaCl, 5 KCl, 0.5 EGTA, 1 MgCl2, 10 Glucose and 10 HEPES, with pH adjusted to 7.4 by NaOH and osmolarity 300–310 mOsm. The 0.5 mM EGTA was replaced by 2 mM CaCl2 for the recordings in DRG neurons. TRPA1 currents development was monitored with repetitive injections of 300 ms duration voltage ramps from −100 to +100 mV every 2 s and the holding potential was set to 0 mV for 50 ms, existing in both sides of the voltage ramp. To record inward currents in DRG neurons, we conducted voltage clamp at holding membrane potential of −70 mV. Solutions were switched using a gravity-fed continuous focal perfusion system.

Data set [2] relates to hens. In words: Transmission electron microscopy of hen spinal cord and sciatic nerve. It counts as in vivo. The following applies: 21 days after exposure. Here is the method: For hens, the animals were anesthetized with sodium pentobarbital (100 mg kg^−1) and killed 21 days after exposure to TOCP and malathion. They were then perfused with normal saline followed immediately by 4% paraformaldehyde. The lumbar spinal cord at approximately the L2-L3 level and the sciatic nerve of the left leg were removed and fixed by immersion in ice-cold 2.5% glutaraldehyde. Subsequently, the samples were post-fixed in 1% OsO4 for 1 h, dehydrated with the ethanol series, and embedded in epon resin. Sixty-nanometer ultra-thin sections were double stained with lead citrate and uranyl acetate and examined with an electron microscopy.

Data set [3] relates to hens. Type of data set: in vivo, hen. To be noted: hens, TOCP single dose 750 mg kg−1, end of the 21-day period. Here is the method:
The chosen adult Hyline Brown hens were raised individually in stainless steel wire cages. After 7 days of acclimatization, the chosen hens were randomly divided into groups (n=6–10 for each group). The hens in the delayed neuropathy groups were administered a single dose of 750 mg kg^−1 TOCP and repeated doses of 75 mg kg^−1 malathion by gavage. TOCP and malathion were dissolved in corn oil and administered at 0.65 ml kg^−1. In the HC030031 treatment groups, 100 mg kg^−1 HC030031 was administered by gavage daily beginning at day 0 or day 11. All hens were examined daily for signs of delayed neurotoxicity. A five-point graded scale was used to describe the clinical symptoms of delayed neuropathy, with 0 indicating normal ambulation; (1) suspected ataxia (lack of strength in the legs and tottering); (2) mild ataxia (slow, clumsy and unsteady gait); (3) gross ataxia (waddling gait and staggering and falling despite being active); (4) mild paralysis (typical paralytic posture and lame appearance); and (5) complete paralysis (unable to maintain posture, stand up or move at all), as described previously.

In a further data set the target is T1, cTRPA1 (Gallus gallus, UniProt W8VTH6).
T1 sequence (W8VTH6 1-1126): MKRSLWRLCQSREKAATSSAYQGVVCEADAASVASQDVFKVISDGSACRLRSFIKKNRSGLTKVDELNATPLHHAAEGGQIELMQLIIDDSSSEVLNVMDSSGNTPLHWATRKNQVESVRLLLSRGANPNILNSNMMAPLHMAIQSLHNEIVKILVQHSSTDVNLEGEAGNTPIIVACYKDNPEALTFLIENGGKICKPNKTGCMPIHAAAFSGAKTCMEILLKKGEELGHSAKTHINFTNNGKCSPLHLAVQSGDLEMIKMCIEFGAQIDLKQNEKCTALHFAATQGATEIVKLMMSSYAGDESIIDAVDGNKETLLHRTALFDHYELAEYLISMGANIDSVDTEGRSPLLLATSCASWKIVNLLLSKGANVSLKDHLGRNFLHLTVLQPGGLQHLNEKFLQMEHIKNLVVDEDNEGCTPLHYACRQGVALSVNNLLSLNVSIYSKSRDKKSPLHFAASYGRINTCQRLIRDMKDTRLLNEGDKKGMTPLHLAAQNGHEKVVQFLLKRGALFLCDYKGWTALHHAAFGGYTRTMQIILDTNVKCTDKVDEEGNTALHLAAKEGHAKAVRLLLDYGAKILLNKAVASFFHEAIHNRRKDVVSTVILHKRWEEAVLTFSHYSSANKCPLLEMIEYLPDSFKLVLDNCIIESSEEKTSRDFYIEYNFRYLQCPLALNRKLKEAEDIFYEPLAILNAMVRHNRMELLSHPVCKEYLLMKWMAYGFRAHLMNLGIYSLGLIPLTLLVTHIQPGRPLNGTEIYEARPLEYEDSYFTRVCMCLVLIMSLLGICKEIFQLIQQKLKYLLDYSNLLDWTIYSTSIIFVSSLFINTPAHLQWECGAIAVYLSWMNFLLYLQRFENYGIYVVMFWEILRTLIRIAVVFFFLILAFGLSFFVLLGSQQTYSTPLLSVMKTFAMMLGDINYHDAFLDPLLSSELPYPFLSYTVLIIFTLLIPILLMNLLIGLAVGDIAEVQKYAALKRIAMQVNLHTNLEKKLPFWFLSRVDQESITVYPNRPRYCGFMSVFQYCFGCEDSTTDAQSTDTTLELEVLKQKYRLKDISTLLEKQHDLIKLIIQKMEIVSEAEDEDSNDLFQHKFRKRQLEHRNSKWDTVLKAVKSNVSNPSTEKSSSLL
In words: Whole-cell patch-clamp, HEK293 cells expressing cTRPA1. Type of data set: cell-based, chicken. The procedure:
All cell culture reagents were purchased from Life Technologies. HEK293 cells were transfected transiently with the corresponding plasmids using lipofectamine 2000 (Life Technologies). Transfection efficiency was monitored by co-transfecting EGFP plasmid which codes for the enhanced green fluorescent protein. Electrophysiological recordings were performed between 24 and 36 h after transfection.
as §2, with “The internal solution was as follows (in mM): 140 CsCl, 10 HEPES, 5 EGTA, 0.1 CaCl2 and 1 MgCl2, with pH adjusted to 7.2 by CsOH and osmolarity 295–300 mOsm.” left out

A further data set deals with T2, hTRPA1 (Homo sapiens, UniProt O75762).
T2 construct: expressed in transfected cells; host or cells: HEK293, transient, EGFP plasmid co-transfected
T2 sequence (O75762 whole entry): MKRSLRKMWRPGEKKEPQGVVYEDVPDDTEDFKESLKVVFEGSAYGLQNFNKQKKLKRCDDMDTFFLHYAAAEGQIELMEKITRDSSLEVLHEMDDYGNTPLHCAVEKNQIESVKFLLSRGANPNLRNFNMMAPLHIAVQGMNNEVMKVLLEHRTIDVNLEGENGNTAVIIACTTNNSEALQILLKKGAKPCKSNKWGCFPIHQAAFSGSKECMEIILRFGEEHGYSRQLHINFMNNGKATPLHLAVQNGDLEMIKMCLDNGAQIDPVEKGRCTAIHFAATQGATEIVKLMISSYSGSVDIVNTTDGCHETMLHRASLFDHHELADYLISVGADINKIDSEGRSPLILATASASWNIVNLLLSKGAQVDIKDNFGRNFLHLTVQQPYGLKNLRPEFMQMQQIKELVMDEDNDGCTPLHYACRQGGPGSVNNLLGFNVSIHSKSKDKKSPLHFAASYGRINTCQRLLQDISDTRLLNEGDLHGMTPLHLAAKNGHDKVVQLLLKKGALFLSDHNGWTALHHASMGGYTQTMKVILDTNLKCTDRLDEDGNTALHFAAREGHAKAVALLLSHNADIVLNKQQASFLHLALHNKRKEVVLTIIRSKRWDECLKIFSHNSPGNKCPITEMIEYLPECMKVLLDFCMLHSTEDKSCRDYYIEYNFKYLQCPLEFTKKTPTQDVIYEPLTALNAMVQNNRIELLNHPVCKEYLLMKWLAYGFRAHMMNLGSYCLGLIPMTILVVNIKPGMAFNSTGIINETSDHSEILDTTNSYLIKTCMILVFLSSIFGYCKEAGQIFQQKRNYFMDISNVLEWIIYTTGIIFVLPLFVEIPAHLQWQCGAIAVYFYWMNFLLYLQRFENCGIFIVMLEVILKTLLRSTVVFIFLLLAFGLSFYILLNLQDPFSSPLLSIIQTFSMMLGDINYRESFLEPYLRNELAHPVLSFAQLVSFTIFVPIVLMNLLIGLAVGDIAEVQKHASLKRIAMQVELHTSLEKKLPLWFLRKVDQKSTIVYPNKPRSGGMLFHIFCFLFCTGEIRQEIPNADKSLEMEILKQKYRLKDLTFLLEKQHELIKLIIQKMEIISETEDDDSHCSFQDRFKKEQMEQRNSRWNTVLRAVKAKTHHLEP
In words: cell-based. Type of data set: cell-based. The following applies: 30 μM, calcium-free external solution. Here is the method: as §1, §2

For a further data set, the target named is T3, rTRPA1 (Rattus norvegicus, UniProt Q6RI86).
T3 construct: expressed in transfected cells; host or cells: HEK293, transient
T3 sequence (Q6RI86 whole entry): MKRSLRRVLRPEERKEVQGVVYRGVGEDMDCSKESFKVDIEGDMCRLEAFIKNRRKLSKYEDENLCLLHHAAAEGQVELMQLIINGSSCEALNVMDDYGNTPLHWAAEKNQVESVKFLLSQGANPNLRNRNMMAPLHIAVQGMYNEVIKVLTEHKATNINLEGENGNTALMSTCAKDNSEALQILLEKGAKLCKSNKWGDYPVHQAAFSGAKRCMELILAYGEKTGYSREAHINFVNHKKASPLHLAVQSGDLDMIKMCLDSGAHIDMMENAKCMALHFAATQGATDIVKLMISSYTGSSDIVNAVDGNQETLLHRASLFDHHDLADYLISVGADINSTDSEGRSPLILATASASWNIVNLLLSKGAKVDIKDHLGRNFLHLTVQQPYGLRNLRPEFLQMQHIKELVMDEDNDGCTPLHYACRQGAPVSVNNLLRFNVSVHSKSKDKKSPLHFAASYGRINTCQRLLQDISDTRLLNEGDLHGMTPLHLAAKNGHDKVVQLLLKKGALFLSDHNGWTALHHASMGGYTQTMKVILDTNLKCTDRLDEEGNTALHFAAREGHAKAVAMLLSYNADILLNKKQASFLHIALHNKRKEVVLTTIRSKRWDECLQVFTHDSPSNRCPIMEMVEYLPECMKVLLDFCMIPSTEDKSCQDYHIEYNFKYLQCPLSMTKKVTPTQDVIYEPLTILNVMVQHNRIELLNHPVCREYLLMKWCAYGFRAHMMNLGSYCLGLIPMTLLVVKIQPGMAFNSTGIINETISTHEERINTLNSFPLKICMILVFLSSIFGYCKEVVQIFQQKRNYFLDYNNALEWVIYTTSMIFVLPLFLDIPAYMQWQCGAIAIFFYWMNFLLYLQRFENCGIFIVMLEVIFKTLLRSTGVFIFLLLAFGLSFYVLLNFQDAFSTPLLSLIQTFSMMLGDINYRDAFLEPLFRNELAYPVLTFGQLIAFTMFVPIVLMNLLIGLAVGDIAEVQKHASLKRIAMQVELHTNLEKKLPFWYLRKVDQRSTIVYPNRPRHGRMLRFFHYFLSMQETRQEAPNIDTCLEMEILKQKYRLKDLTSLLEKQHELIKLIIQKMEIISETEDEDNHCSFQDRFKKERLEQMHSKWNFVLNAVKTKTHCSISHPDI
In words: Whole-cell patch-clamp, HEK293 cells expressing rTRPA1. It counts as cell-based. The following applies: 30 μM, calcium-free external solution. Here is the method:
as §1, §2

Structures are written as SMILES.

Chain of mTRPA1 (Q8BLA8 whole entry): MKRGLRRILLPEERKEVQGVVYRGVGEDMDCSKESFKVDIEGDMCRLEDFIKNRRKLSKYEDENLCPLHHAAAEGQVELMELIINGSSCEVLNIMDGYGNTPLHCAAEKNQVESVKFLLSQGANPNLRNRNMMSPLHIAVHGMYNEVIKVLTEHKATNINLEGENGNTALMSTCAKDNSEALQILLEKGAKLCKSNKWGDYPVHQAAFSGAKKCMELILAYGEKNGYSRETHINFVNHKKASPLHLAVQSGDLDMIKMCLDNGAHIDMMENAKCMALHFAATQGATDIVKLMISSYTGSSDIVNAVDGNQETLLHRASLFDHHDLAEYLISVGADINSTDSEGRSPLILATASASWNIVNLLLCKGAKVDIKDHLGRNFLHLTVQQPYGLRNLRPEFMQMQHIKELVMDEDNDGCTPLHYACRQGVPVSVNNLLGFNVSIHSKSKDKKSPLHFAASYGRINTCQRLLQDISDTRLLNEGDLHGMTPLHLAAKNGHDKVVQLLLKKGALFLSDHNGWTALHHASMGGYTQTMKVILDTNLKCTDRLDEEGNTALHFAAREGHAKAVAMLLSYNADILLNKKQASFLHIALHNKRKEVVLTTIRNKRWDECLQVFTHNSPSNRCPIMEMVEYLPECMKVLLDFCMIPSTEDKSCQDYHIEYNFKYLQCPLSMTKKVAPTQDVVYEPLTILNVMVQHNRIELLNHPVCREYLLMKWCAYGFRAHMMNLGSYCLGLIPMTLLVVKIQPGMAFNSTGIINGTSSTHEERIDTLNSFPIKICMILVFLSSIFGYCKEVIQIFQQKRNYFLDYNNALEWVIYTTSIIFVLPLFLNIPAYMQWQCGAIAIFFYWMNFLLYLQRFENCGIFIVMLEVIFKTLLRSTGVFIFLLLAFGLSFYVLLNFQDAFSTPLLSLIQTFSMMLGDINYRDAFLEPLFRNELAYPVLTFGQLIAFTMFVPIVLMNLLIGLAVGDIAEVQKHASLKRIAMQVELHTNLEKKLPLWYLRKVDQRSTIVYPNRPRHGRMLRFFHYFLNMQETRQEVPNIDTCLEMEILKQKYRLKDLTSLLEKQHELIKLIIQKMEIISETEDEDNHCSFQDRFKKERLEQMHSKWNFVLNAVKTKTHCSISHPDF

Consider `O=C(O)c1ccccc1Nc1cccc(C(F)(F)F)c1` [flufenamic acid], for which the “role of the mutated residues (except C414) for activation of TRPA1” value in data set [1] was “not essential”.
With `Cc1ccccc1OP(=O)(Oc1ccccc1C)Oc1ccccc1C` [TOCP, tri-ortho-cresyl phosphate], on mTRPA1, the “activation of mTRPA1 whole-cell currents” value is listed as “effectively activate”. In the data set with hens [2], the “damage of spinal cord and sciatic nerve (TEM)” value is “severely damaged the spinal cord and sciatic nerve”. Further, in the data set on hens [3], the “clinical symptoms of delayed neuropathy” value is “completely paralyzed”. At cTRPA1, this molecule displayed an EC50 of 15.8 ± 1.37 µM. The “activation of cTRPA1 whole-cell currents” value on cTRPA1 (calcium-free external solution) is “effectively activate”. In addition, the “activation of hTRPA1 whole-cell currents” value on hTRPA1 was “effectively activate”. Further, the “activation of rTRPA1 whole-cell currents” value at rTRPA1 is recorded as “effectively activate”.

In general, EC50 refers to the concentration that produces a half-maximal response.
